Reference: US20090203700A1, “Azolylmethyloxiranes, Their Use for Controlling Phytopathogenic Fungi, and Compositions Comprising Them” (BASF SE, priority 2006, published 2009)

Tests used:
Puccinia recondita = assay: Protective activity against Puccinia recondita on wheat (brown rust of wheat) (Puccrt P1); assay type: in vivo; conditions: 250 ppm active compound, sprayed to runoff on potted wheat seedlings, inoculated next day; untreated plants 90% infected
Experimental: The active compounds were prepared separately or jointly as a stock solution comprising 25 mg of active compound which was made up to 10 ml using a mixture of acetone and/or DMSO and the emulsifier Wettol EM 31 (wetting agent having emulsifying and dispersing action based on ethoxylated alkylphenols) in a volume ratio of solvent/emulsifier of 99:1. The mixture was then made up to 100 ml with water. This stock solution was diluted with the solvent/emulsifier/water mixture described to give the concentration of active compound stated below. Leaves of potted wheat seedlings were sprayed to runoff point with an aqueous suspension having the active compound concentration stated below. The next day, the treated plants were inoculated with a spore suspension of brown rust of wheat (Puccinia recondita). The plants were then placed in a chamber with high atmospheric humidity (90 to 95%) at 20 to 22° C. for 24 hours. During this time, the spores germinated and the germ tubes penetrated into the leaf tissue. The next day, the test plants were returned to the greenhouse and cultivated at temperatures between 20 and 22° C. and at 65 to 70% relative atmospheric humidity for a further 7 days. The extent of the rust fungus development on the leaves was then determined visually.

Pyrenophora teres = assay: Activity against net blotch of barley caused by Pyrenophora teres, 1 day protective application (Pyrnte P1); assay type: in vivo, Pyrenophora [syn. Drechslera] teres on barley; conditions: 250 ppm active compound, sprayed to runoff on potted barley seedlings, inoculated after 24 hours, assessed after 6 days; untreated plants 90% infected
Experimental: The active compounds were prepared separately or jointly as a stock solution comprising 25 mg of active compound which was made up to 10 ml using a mixture of acetone and/or DMSO and the emulsifier Wettol EM 31 (wetting agent having emulsifying and dispersing action based on ethoxylated alkylphenols) in a volume ratio of solvent/emulsifier of 99:1. The mixture was then made up to 100 ml with water. This stock solution was diluted with the solvent/emulsifier/water mixture described to give the concentration of active compound stated below. Leaves of potted barley seedlings were sprayed to runoff point with an aqueous suspension having the active compound concentration stated below. 24 hours after the spray coating had dried on, the test plants were inoculated with an aqueous spore suspension of Pyrenophora [syn. Drechslera] teres, the net blotch pathogen. The test plants were then placed in a greenhouse at temperatures between 20 and 24° C. and at 95 to 100% relative atmospheric humidity. After 6 days, the extent of the development of the disease was determined visually in % infection of the entire leaf area.

Fc1ccc([C@@]2(Cn3cncn3)O[C@@H]2c2cccnc2Cl)cc1 (racemic) [3-{(2RS,3SR)-3-[(1H-1,2,4-triazol-1-yl)methyl]-3-[4-fluorophenyl]oxiran-2-yl}-2-chloropyridine]
infection (extent of rust fungus development on the leaves, determined visually) (Puccinia recondita): not more than 10% | infection (% infection of the entire leaf area, determined visually) (Pyrenophora teres): not more than 20%
